Patent US12146004B2, “Polymyxin compounds and uses thereof” (priority 2014, dated 2024)
Values after ≈ are worked out from the molar mass of the structure shown. Read-outs that look alike come from different tables or passages of the source. Bridge positions count the residues as written; N and C are the ends. Square brackets hold non-standard residues; d marks the D form. Peptide text beside a SMILES is read from it. * marks the point of attachment. ξ: configuration not given here. dPhe(4-CN) = N#Cc1ccc(C[C@@H](N)C(=O)O)cc1; X29 = Cc1ccc(CO[C@@H](CN)C(=O)*)cc1; Octanoyl(6-Me) = CCC(C)CCCCC(=O)*; dCha = N[C@H](CC1CCCCC1)C(=O)O; Thr(3ξ) = CC(O)[C@H](N)C(=O)O; Dab = NCC[C@H](N)C(=O)O; Dap = NC[C@H](N)C(=O)O

Assays:
Format in all cases: cell-based
[1] = system: Acinetobacter baumannii
Method in brief: (§1)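 Susceptibility testing covered up to nine strains of each Gram-negative pathogen, among them resistant strains and strains with elevated MICs to Polymyxin. Values are MICs in μg/mL.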

[2] = system: Escherichia coli; details: for MIC E. coli NCTC 9001: strain NCTC 9001
Method in brief: as §1

[3] = system: Klebsiella pneumoniae
Method in brief: as §1

[4] = system: Pseudomonas aeruginosa
Method in brief: as §1

MIC A. baumanii 053 [1]	MIC A. baumanii 056 [1]	MIC A. baumanii ATCC BAA-747 [1]	MIC A. baumanii NCTC 13424 [1]	MIC E. coli 058 [2]	MIC E. coli 061 [2]	MIC E. coli ATCC 25922 [2]	MIC K. pneumoniae 063 [3]	MIC K. pneumoniae 065 [3]	MIC K. pneumoniae ATCC 13882 [3]	MIC P. aeruginosa 068 [4]	MIC P. aeruginosa 070 [4]	MIC P. aeruginosa ATCC 27853 [4]	MIC P. aeruginosa CCUG 59347 [4]	SMILES	MIC A. baumanii 053 ([1]; strain 053)	MIC A. baumanii 056 ([1]; strain 056)	MIC A. baumanii ATCC BAA-747 ([1]; strain ATCC BAA-747)	MIC A. baumanii NCTC 13424 ([1]; strain NCTC 13424)	MIC E. coli 058 ([2]; strain 058)	MIC E. coli ATCC 25922 ([2]; strain ATCC 25922)	also measured
32 µg/mL (≈ 28.3 µM)	32 µg/mL (≈ 28.3 µM)	0.125 µg/mL (≈ 0.111 µM)	0.25 µg/mL (≈ 0.221 µM)	8 µg/mL (≈ 7.08 µM)	32 µg/mL (≈ 28.3 µM)	0.125 µg/mL (≈ 0.111 µM)	64 µg/mL (≈ 56.6 µM)	4 µg/mL (≈ 3.54 µM)	0.25 µg/mL (≈ 0.221 µM)	8 µg/mL (≈ 7.08 µM)	16 µg/mL (≈ 14.2 µM)	0.25 µg/mL (≈ 0.221 µM)	0.25 µg/mL (≈ 0.221 µM)	CC(C)C[C@@H]1NC(=O)[C@@H](CC2CCCCC2)NC(=O)[C@H](CCN)NC(=O)[C@@H](NC(=O)[C@H](CCN)NC(=O)[C@@H](NC(=O)C(CCN)c2ccccc2)[C@@H](C)O)CCNC(=O)[C@H]([C@@H](C)O)NC(=O)[C@H](CCN)NC(=O)[C@H](CCN)NC1=O (single isomer, unassigned; isomer 2) [Example 64, 4-amino-2-phenylbutanoyl polymyxin [D-cyclohexylalanine]-6 nonapeptide isomer 2]							
		0.5 µg/mL (≈ 0.448 µM)	1 µg/mL (≈ 0.896 µM)	16 µg/mL (≈ 14.3 µM)		0.5 µg/mL (≈ 0.448 µM)			0.5 µg/mL (≈ 0.448 µM)				1 µg/mL (≈ 0.896 µM)	CC(C)C[C@@H]1NC(=O)[C@@H](CC2CCCCC2)NC(=O)[C@H](CCN)NC(=O)[C@@H](NC(=O)[C@H](CN)NC(=O)[C@@H](NC(=O)CCC(N)c2ccccc2)[C@@H](C)O)CCNC(=O)[C@H]([C@@H](C)O)NC(=O)[C@H](CCN)NC(=O)[C@H](CCN)NC1=O (single isomer, unassigned; isomer 1) [Example 60, 4-amino-4-phenylbutanoyl L-Thr-L-Dap-polymyxin [D-cyclohexylalanine]-6 heptapeptide. Isomer 1]							
														CC(C)C[C@@H]1NC(=O)[C@@H](CC2CCCCC2)NC(=O)[C@H](CCN)NC(=O)[C@@H](NC(=O)[C@H](CN)NC(=O)[C@@H](NC(=O)CC(CN)C2CCCCC2)C(C)O)CCNC(=O)[C@H]([C@@H](C)O)NC(=O)[C@H](CCN)NC(=O)[C@H](CCN)NC1=O (single isomer, unassigned; isomer 2) [Example 43, 4-amino-3-cyclohexylbutanoyl L-Thr-L-Dap-polymyxin [D-cyclohexylalanine]-6 heptapeptide. isomer 2]	64 µg/mL (≈ 57 µM)	32 µg/mL (≈ 28.5 µM)	0.125 µg/mL (≈ 0.111 µM)	0.25 µg/mL (≈ 0.223 µM)	1 µg/mL (≈ 0.891 µM)	0.25 µg/mL (≈ 0.223 µM)	MIC E. coli 061 ([2]; strain 061): 8 µg/mL (≈ 7.13 µM); MIC E. coli NCTC 9001 [2]: 0.06 µg/mL (≈ 0.0535 µM); MIC K. pneumoniae 063 ([3]; strain 063): 16 µg/mL (≈ 14.3 µM); MIC K. pneumoniae 065 ([3]; strain 065): 0.5 µg/mL (≈ 0.445 µM); MIC K. pneumoniae ATCC 13882 ([3]; strain ATCC 13882): 0.25 µg/mL (≈ 0.223 µM); MIC P. aeruginosa 068 ([4]; strain 068): 2 µg/mL (≈ 1.78 µM); MIC P. aeruginosa 070 ([4]; strain 070): 2 µg/mL (≈ 1.78 µM); MIC P. aeruginosa ATCC 27853 ([4]; strain ATCC 27853): 0.25 µg/mL (≈ 0.223 µM); MIC P. aeruginosa CCUG 59347 ([4]; strain CCUG 59347): 0.25 µg/mL (≈ 0.223 µM)
														CC(C)C[C@@H]1NC(=O)[C@@H](CC2CCCCC2)NC(=O)[C@H](CCN)NC(=O)[C@@H](NC(=O)[C@H](CCN)NC(=O)[C@@H](NC(=O)CC(CN)C2CCCCC2)[C@@H](C)O)CCNC(=O)[C@H]([C@@H](C)O)NC(=O)[C@H](CCN)NC(=O)[C@H](CCN)NC1=O (single isomer, unassigned; isomer 2) [Example 87, 4-amino-3-cyclohexylbutanoyl polymyxin [D-cyclohexylalanine-6]nonapeptide. Isomer 2]	64 µg/mL (≈ 56.3 µM)	64 µg/mL (≈ 56.3 µM)	0.25 µg/mL (≈ 0.22 µM)	0.125 µg/mL (≈ 0.11 µM)	4 µg/mL (≈ 3.52 µM)	0.125 µg/mL (≈ 0.11 µM)	MIC E. coli 061 ([2]; strain 061): 16 µg/mL (≈ 14.1 µM); MIC E. coli NCTC 9001 [2]: 0.125 µg/mL (≈ 0.11 µM); MIC K. pneumoniae 063 ([3]; strain 063): 16 µg/mL (≈ 14.1 µM); MIC K. pneumoniae 065 ([3]; strain 065): 0.5 µg/mL (≈ 0.44 µM); MIC K. pneumoniae ATCC 13882 ([3]; strain ATCC 13882): 0.25 µg/mL (≈ 0.22 µM); MIC P. aeruginosa 068 ([4]; strain 068): 2 µg/mL (≈ 1.76 µM); MIC P. aeruginosa 070 ([4]; strain 070): 8 µg/mL (≈ 7.04 µM); MIC P. aeruginosa ATCC 27853 ([4]; strain ATCC 27853): 0.25 µg/mL (≈ 0.22 µM); MIC P. aeruginosa CCUG 59347 ([4]; strain CCUG 59347): 0.5 µg/mL (≈ 0.44 µM)
>64 µg/mL	>64 µg/mL	0.25 µg/mL (≈ 0.203 µM)	0.25 µg/mL (≈ 0.203 µM)	4 µg/mL (≈ 3.26 µM)	16 µg/mL (≈ 13 µM)	0.125 µg/mL (≈ 0.102 µM)	64 µg/mL (≈ 52.1 µM)	8 µg/mL (≈ 6.51 µM)		32 µg/mL (≈ 26 µM)	>64 µg/mL	0.25 µg/mL (≈ 0.203 µM)	0.5 µg/mL (≈ 0.407 µM)	CCC(C)CCCCC(=O)N[C@@H](CCN)C(=O)N[C@H](C(=O)N[C@@H](CCN)C(=O)N[C@H]1CCNC(=O)[C@H]([C@@H](C)O)NC(=O)[C@H](CCN)NC(=O)[C@H](CCN)NC(=O)[C@H](CC(C)C)NC(=O)[C@@H](Cc2ccc(C#N)cc2)NC(=O)[C@H](CCN)NC1=O)C(C)O (stereo partly drawn) [Example 24, Polymyxin B[D-(4-cyano)Phe]-6] ({Octanoyl(6-Me)}-[Dab][Thr(3ξ)][Dab][Dab][Dab][dPhe(4-CN)]L[Dab][Dab]T; lactam 4-C)							MIC K. pneumoniae ATCC 4352 [3]: 0.125 µg/mL (≈ 0.102 µM)
														CC(C)C[C@@H]1NC(=O)[C@@H](CC2CCCCC2)NC(=O)[C@H](CCN)NC(=O)[C@@H](NC(=O)[C@H](CN)NC(=O)[C@@H](NC(=O)CC(CN)Cc2ccccc2)[C@@H](C)O)CCNC(=O)[C@H]([C@@H](C)O)NC(=O)[C@H](CCN)NC(=O)[C@H](CCN)NC1=O (single isomer, unassigned; isomer 2) [Example 59, 4-amino-3-benzylbutanoyl L-Thr-L-Dap-polymyxin [D-cyclohexylalanine]-6 heptapeptide. Isomer 2]	32 µg/mL (≈ 28.3 µM)	16 µg/mL (≈ 14.2 µM)	0.03 µg/mL (≈ 0.0265 µM)	0.06 µg/mL (≈ 0.0531 µM)	2 µg/mL (≈ 1.77 µM)	0.125 µg/mL (≈ 0.111 µM)	MIC E. coli NCTC 9001 [2]: 0.06 µg/mL (≈ 0.0531 µM); MIC K. pneumoniae 063 ([3]; strain 063): 32 µg/mL (≈ 28.3 µM); MIC K. pneumoniae 065 ([3]; strain 065): 2 µg/mL (≈ 1.77 µM); MIC K. pneumoniae ATCC 4352 ([3]; strain ATCC 4352): 0.125 µg/mL (≈ 0.111 µM); MIC K. pneumoniae ATCC 13882 ([3]; strain ATCC 13882): 0.25 µg/mL (≈ 0.221 µM); MIC P. aeruginosa 068 ([4]; strain 068): 4 µg/mL (≈ 3.54 µM); MIC P. aeruginosa 070 ([4]; strain 070): 8 µg/mL (≈ 7.08 µM); MIC P. aeruginosa ATCC 27853 ([4]; strain ATCC 27853): 0.25 µg/mL (≈ 0.221 µM); MIC P. aeruginosa CCUG 59347 ([4]; strain CCUG 59347): 0.25 µg/mL (≈ 0.221 µM)
		0.25 µg/mL (≈ 0.218 µM)	0.06 µg/mL (≈ 0.0523 µM)	4 µg/mL (≈ 3.49 µM)		0.25 µg/mL (≈ 0.218 µM)			0.25 µg/mL (≈ 0.218 µM)			0.25 µg/mL (≈ 0.218 µM)	0.25 µg/mL (≈ 0.218 µM)	Cc1ccc(CO[C@@H](CN)C(=O)N[C@H](C(=O)N[C@@H](CN)C(=O)N[C@H]2CCNC(=O)[C@H]([C@@H](C)O)NC(=O)[C@H](CCN)NC(=O)[C@H](CCN)NC(=O)[C@H](CC(C)C)NC(=O)[C@@H](CC3CCCCC3)NC(=O)[C@H](CCN)NC2=O)[C@@H](C)O)cc1 [Example 78, (S)-3-amino-2-((4-methylbenzyl)oxy) propanoyl L-Thr-L-Dap-polymyxin [D-cyclohexylalanine]-6 heptapeptide] (X29-T[Dap][Dab][Dab][dCha]L[Dab][Dab]T; lactam 3-C)							
2 µg/mL (≈ 1.63 µM)	2 µg/mL (≈ 1.63 µM)	2 µg/mL (≈ 1.63 µM)		2 µg/mL (≈ 1.63 µM)	2 µg/mL (≈ 1.63 µM)	2 µg/mL (≈ 1.63 µM)	16 µg/mL (≈ 13 µM)	4 µg/mL (≈ 3.26 µM)		4 µg/mL (≈ 3.26 µM)	4 µg/mL (≈ 3.26 µM)	2 µg/mL (≈ 1.63 µM)		CCCCCC/C=C/c1ccc(C[C@H]2NC(=O)[C@H](CCN)NC(=O)[C@@H](NC(=O)[C@H](CN)NC(=O)[C@@H](NC(=O)C3CNCC(CC(C)C)C3)C(C)O)CCNC(=O)[C@H]([C@@H](C)O)NC(=O)[C@H](CCN)NC(=O)[C@H](CCN)NC(=O)[C@H](CC(C)C)NC2=O)cc1 (single isomer, unassigned; isomer 1) [Example 17, (trans-5-(isobutyl-piperidine)-3-carbonyl L-Thr-L-Dap-polymyxin [D-(4-(E)-oct-1-enyl) Phe]-6]heptapeptide Isomer 1]							MIC E. coli 059 [2]: 2 µg/mL (≈ 1.63 µM); MIC E. coli 060 [2]: 2 µg/mL (≈ 1.63 µM); MIC K. pneumoniae 062 [3]: 4 µg/mL (≈ 3.26 µM); MIC K. pneumoniae 064 [3]: 8 µg/mL (≈ 6.52 µM); MIC K. pneumoniae 067 [3]: 32 µg/mL (≈ 26.1 µM); MIC K. pneumoniae ATCC 4352 [3]: 2 µg/mL (≈ 1.63 µM)
32 µg/mL (≈ 28.2 µM)	16 µg/mL (≈ 14.1 µM)	0.25 µg/mL (≈ 0.22 µM)	0.25 µg/mL (≈ 0.22 µM)	8 µg/mL (≈ 7.04 µM)	32 µg/mL (≈ 28.2 µM)	0.125 µg/mL (≈ 0.11 µM)	64 µg/mL (≈ 56.3 µM)	8 µg/mL (≈ 7.04 µM)	0.125 µg/mL (≈ 0.11 µM)	8 µg/mL (≈ 7.04 µM)	32 µg/mL (≈ 28.2 µM)	0.25 µg/mL (≈ 0.22 µM)	0.5 µg/mL (≈ 0.44 µM)	CC(C)C[C@@H]1NC(=O)[C@@H](CC2CCCCC2)NC(=O)[C@H](CCN)NC(=O)[C@@H](NC(=O)[C@H](CCN)NC(=O)[C@@H](NC(=O)C(CCN)c2cccs2)[C@@H](C)O)CCNC(=O)[C@H]([C@@H](C)O)NC(=O)[C@H](CCN)NC(=O)[C@H](CCN)NC1=O (single isomer, unassigned; isomer 2) [Example 70, 4-amino-2-(thiophen-2-yl)butanoyl polymyxin [D-cyclohexylalanine]-6 nonapeptide isomer 2]							
